Like-named read-outs stand apart in the source and are kept apart here.
Assays:
[1] = Stability to demetallation (sulfide, thiosulfate); assay type: physicochemical; settings: for demetallation by sulfide: aqueous Na2 S / excess sulfide anion
From the text: The above K1 and K2 (or K1 K2) values are predicated on the assumption that the cadmium complexes under discussion are stable with regards to demetallation and that the equilibria of equations 1 and 2 (or 3) pertain under the conditions of base binding. The first of these concerns is readily apparent: If demetallation occurs, then obviously one is not studying base binding! […] The second concern is particularly important within the context of quantitative work: If, for instance, the starting complex 3.cndot.NO3 is not rigorously five coordinate, then K1 (and perhaps K2 as well) would represent an axial ligand displacement reaction rather than a pure addition process as implied above. Control experiments indicate that the assumption of initial five coordination is reasonable: Independent titrations of 3A .cndot.NO3 with NH4 NO3 and H2 O indicate that only modest and monotonic changes in the chemical shift of the "meso" signals take place over the course of adding ≥50 equivalents of these potentially adventitious ligands.^40 This means that either "complete" binding occurs at 1:1 stoichiometry (essentially ruled out in the case of H2 O on the basis of analytical data), or that these species are poorly coordinating in CHCl3 so that five coordination pertains about cadmium; the latter interpretation appearing more likely.
(§1) Attempts to demetallate complex 3A .cndot.NO3 were made. In an effort to obtain the free sp^2 bridged ligand 2A, the above complex in chloroform was stirred for several hours in the presence of sodium sulfide and independently with sodium thiosulfate. […] In the case of sodium sulfide, this critical conclusion was further supported by FAB MS: Other than the starting cationic complex 3A, no evidence was obtained for any moderate to high molecular weight volatile products in the mass spectrum. […] The rate of this process, however, is strongly pH dependent, the half-life being, for instance, on the order of several hours in the presence of ca. 0.1N HCl.

[2] = Hydrolysis in aqueous acid; assay type: physicochemical
From the text: as §1

[3] = Axial base binding of benzimidazole, 1H NMR spectral titration; settings: for conversion to six coordinate form (4bA): ca. 5×10^-3 M
From the text: (§2) For a rigorously five coordinate starting cadmium complex, such as that represented schematically by structure 3A, where neither the counter anion nor adventitious ligands serves to occupy an apical coordination site, base binding can be considered to occur in accord with equations (1) and (2) shown below. Under conditions where K1 […]K2, these processes can be considered to occur sequentially, giving first a monoligated, presumably pentagonal pyramidal six coordinate species (such as 4bA), followed by a coordinatively saturated bisligated pentagonal bipyramidal product akin to 5aA. Where, however, K2 >>K1this stepwise conceptual approach is invalid. Under these conditions, it becomes easier to analyze the base binding in terms of direct formation of the bisligated material as shown in equation (3).
(§3) L+B LB K1 =[LB]/[L][B] (1)
(§4) LB+B LB2 K2 =[LB2 ]/[LB][B] (2)
(§5) L+2B LB2 K1 K2 =[LB2 ]/[L][B]^2 (3)
(§6) The ^1 H NMR titration of 3A .cndot.NO3 with BzIm or pyr-D5 was done. Rigorously purified complex 3A .cndot.NO3 was dried at 80° C. under reduced pressure (1 mmHg) for 1 day. Starting samples for titration were then prepared by dissolving this five coordinate complex (3.32 mg, 0.005 mmol) in 0.7 to 0.75 ml of CDCl3 and transferring quantitatively to an NMR tube. To such samples were then added increasing aliquots of either BzIm or pyr-D5 (as solutions of known concentration in CDCl3) and recording the chemical shift of the "meso" protons at 27^Q C. Control experiments were also carried out by adding known quantities of CF3 CO2 H, D2 O, and NH4 NO3 to similar stock solutions of 3.cndot.NO3.
Determination of Binding Constants. […] The chemical shift data obtained for the "meso" signals as a function of added BzIm were thus analyzed as such at both very low and very high conversion: Standard Scatchard (single reciprocal) plots^38 were constructed by plotting (δ-δo)/[BzIm] vs (δ-δo) according to equation 4 (which corresponds to eq. 5.13 of ref. 38), obtaining K as the absolute value of the slope and the term (δ.infin. -δo)K as the intercept.
(δ-δo)/[BzIm]=-K(δ-δo)+(δ.infi
Here δ is the observed chemical shift, δo is the initial chemical shift of the pure five or six coordinate starting complex (3A .cndot.NO3 or 4bA --NO3), δ.infin. the chemical shift calculated for the final mono- or bisligated complexes 4bA .cndot.NO3 or 5aA .cndot.NO3, K the equilibrium constant in question, and [BzIm] the concentration of free, uncomplexed benzimidazole. […] This was done in a straightforward manner according to the expressions given in equations 5 and 6, where [lig]o represents the concentration of the starting five coordinate ligand 3A .cndot.NO3.
(δ-δo)/δ.infin. -δo) at low
[BzIm].congruent.[BzIm]o -[lig]o at high [BzIm]o (6)
Using these corrected values for [BzIm], straight line Scatchard plots were obtained with R[…]0.99 and 0.98 respectively for the low and high [BzIm]o regimes giving values of K1 and K2 of 1.80×10^4 M^-1 and 12.9 M^-1 respectively.

[4] = Axial base binding of pyridine, 1H NMR spectral titration
From the text: as §2, §3, §4, §5, §6
The changes in "meso" proton chemical shift as a function of added [pyr] shown in FIG. 15 indicate a clear […] of two distinct binding regimes. Moreover as expected, attempts to fit the data as a simple monoligation process (to give 6CN material) according to eq. […] This was done using the convenient iterative procedure outlined by Connors.^38 Here the equations of interest, corresponding to eqs. 4.31 and 4.32 of Connors,^38 as adopted for NMR analyses, are:
[pyr]{Δ12 /(δ-δo)-1}-K1 (7)
(δ-δo) {1+K1 [pyr]+K1 K2 [pyr]^2
where δ is the observed chemical shift, δo is the initial chemical shift of the pure five coordinate starting complex 3.cndot.NO3, All is the total chemical shift difference corresponding to the formation of the pure putative monoligated six coordinate species, Δ12 is the total chemical shift corresponding to the formation of the bisligated cationic species 5a from the initial five coordinate material, and [pyr] is the free pyridine concentration. A precise expression for [pyr] is given by equation 9,^38 where [pyr]o is the concentration total added pyridine, and [lig]o represents the concentration of the starting five coordinate ligand 3A .cndot.NO3.
[pyr]o =[pyr]+[lig]o (K1 [pyr]+2K1 K2
[pyr]^2)/(1+K1 [pyr]+K1 K2 [pyr]^2)(9)
Initial iterative solutions of eqs. 7 (plotting 1/[pyr]-K1 Δ11 /(δ-δo) vs. [pyr]{Δ12 /δ-δo)-1}, giving K1 K2 and -K1 as the slope and intercept respectively) and 8 (plotting (δ-δo) {1+K1 [pyr]+K1 K2 [pyr]^2 }/[pyr] vs. [pyr], giving K1 K2 Δ12 and K1 Δ11 as the slope and intercept respectively) were therefore made using this greatly simplifying assumption. They converged quickly to give initial, uncorrected values of K1 =1.5M^-1 and K1 K2 =308M^-2. […]

[5] = Optical and photophysical properties of metallotexaphyrins (laser flash photolysis, fluorescence, singlet oxygen luminescence); assay type: physicochemical; parameters: tt (triplet lifetime): unit not given here; settings: CH3 OH; for Absorption gmax (Soret-type band): first value (Soret); for Absorption gmax (Q-type band): second value (Q-type); for D^1 O2 (singlet oxygen quantum yield) / Df (fluorescence quantum yield): ±10%
From the text: Finally, several complexes containing paramagnetic metal ions (e.g. Mn^II, Sm^III, and Eu^III, structures 5c -7c) were investigated.
Comparison of the initial intensity with that obtained using tetrakis (4-hydroxyphenyl)porphyrin (THPP) as photosensitizer^3b under identical conditions allowed calculation of the quantum yields for production of singlet oxygen (^.phi. 1.cndot.2).

[6] = parameters: tt (triplet lifetime): unit not given here; settings: benzene, see reference 4, cited from earlier work

CCC1=C(C)C2=[N+]3C1=Cc1c(CC)c(CC)c4[n]1[Cd-3]315[N+](=C2)c2ccccc2[N+]1=CC1=[N+]5C(=C4)C(CC)=C1C.O=[N+]([O-])[O-] [3A .cndot.NO3]
demetallation by sulfide [1]: little or no demetallation occurs | changes in optical properties on treatment with sodium sulfide or sodium thiosulfate ([1]; chloroform, several hours): No significant changes in optical properties were observed | hydrolysis in aqueous acid [2]: appears to undergo hydrolysis (at the imine residues) and hence demetallation | half-life for hydrolysis/demetallation ([2]; ca. 0.1N HCl): several hours | conversion to six coordinate form (4bA) ([3]; 0.2 molar equivalents of BzIm): roughly 20% | conversion to six coordinate form (4bA) ([3]; 1.0 molar equivalent of BzIm): 90% | K1 K2 (benzimidazole) ([3]; CDCl3, iterative approach): 1.9×10^5 M^-2 | Kd ([3]; CDCl3, iterative approach, read-out: K1 (benzimidazole) (converted)): 50 µM | Kd ([3]; CDCl3, very high conversion, read-out: K2 (benzimidazole) (converted)): 76900 µM | Kd ([3]; CDCl3, very low conversion, read-out: K1 (benzimidazole) (converted)): 55.6 µM | conversion to pentagonal bipyramidal product (5aA) ([4]; 3 equivalents of pyridine): ca. 5% | conversion to pentagonal bipyramidal product (5aA) ([4]; 10 equivalents of pyridine): roughly 35% | K1 K2 (pyridine) ([4]; CDCl3, final values, estimated error ≤10%): 315 M^-2 | K1 K2 (pyridine) ([4]; CDCl3, final values, estimated error ≤10%, listed as 3A.cndot.NO3): 315±30 M^-2 | K1 K2 (pyridine) ([4]; initial, uncorrected): 308 M^-2

CCC1=C(C)c2cnc3ccc(Cl)cc3ncc3nc(cc4[n-]c(cc1n2)c(CC)c4CC)C(CC)=C3C.O=[N+]([O-])[O-].[Cd+2] [4C NO3]
Emission gmax [5]: 788 nm | S (= phi 1O2 / phi t) [5]: 0.76 | tt (triplet lifetime) ([5]; deoxygenated): 36 | Absorption gmax (Soret-type band) [5]: 421 nm | Absorption gmax (Q-type band) [5]: 760 nm | Dt (triplet quantum yield) ([5]; ±5%): 0.97 | D^1 O2 (singlet oxygen quantum yield) [5]: 0.74 | Df (fluorescence quantum yield) [5]: 0.009

CCC1=C(C)c2cnc3ccccc3ncc3nc(cc4[n-]c(cc1n2)c(CC)c4CC)C(CC)=C3C.[Cd+2].c1ccc2[nH]cnc2c1 [4bA]
conversion to bisligated seven coordinate form (5bA) ([3]; 10 molar equivalents of BzIm): 35%

CCC1=C(C)c2cnc3ccccc3ncc3nc(cc4[n-]c(cc1n2)c(CC)c4CC)C(CC)=C3C.[Mn+2].[OH-] [5C OH]
Absorption gmax (Soret-type band) [5]: 420 nm | Absorption gmax (Q-type band) [5]: 760 nm | D^1 O2 (singlet oxygen quantum yield) [5]: < 0.05 | Df (fluorescence quantum yield) [5]: < 0.001

CCC1=C(C)c2cnc3cc(C)c(C)cc3ncc3nc(cc4[n-]c(cc1n2)c(CC)c4CC)C(CC)=C3C.[OH-].[OH-].[Sm+3] [6C (OH)2]
Absorption gmax (Soret-type band) [5]: 450 nm | Absorption gmax (Q-type band) [5]: 763 nm | D^1 O2 (singlet oxygen quantum yield) [5]: < 0.05 | Df (fluorescence quantum yield) [5]: < 0.001

CCC1=C(C)c2cnc3cc(C)c(C)cc3ncc3nc(cc4[n-]c(cc1n2)c(CC)c4CC)C(CC)=C3C.[Eu+3].[OH-].[OH-] [7C (OH)2]
Absorption gmax (Soret-type band) [5]: 451 nm | Absorption gmax (Q-type band) [5]: 762 nm | D^1 O2 (singlet oxygen quantum yield) [5]: < 0.05 | Df (fluorescence quantum yield) [5]: < 0.001

C1=Cc2nc1c(-c1ccccc1)c1ccc([nH]1)c(-c1ccccc1)c1nc(c(-c3ccccc3)c3ccc([nH]3)c2-c2ccccc2)C=C1.[Cd].c1ccncc1 [CdTPP(pyr), reference compound]
demetallation by sulfide [1]: leads to cation loss and precipitation of CdS

CCCCCC[Si](CCCCCC)(CCCCCC)O[Si]1(O[Si](CCCCCC)(CCCCCC)CCCCCC)n2c3c4cc5ccccc5cc4c2N=C2N=C(N=c4c5cc6ccccc6cc5c(n41)=NC1=NC(=N3)c3cc4ccccc4cc31)c1cc3ccccc3cc12 [SiNC, bis(trin-hexylsiloxy)(2,3-naphthalocyaninato) silicon]
Absorption gmax (first value) [6]: 310 nm | Absorption gmax (second value) [6]: 776 nm | Emission gmax [6]: 780 nm | S (= phi 1O2 / phi t) [6]: 0.90 | tt (triplet lifetime) [6]: 331 | Dt (triplet quantum yield) ([6]; ±5%): 0.39 | D^1 O2 (singlet oxygen quantum yield) ([6]; ±10%): 0.35

CCC1=C(C)c2cnc3ccccc3ncc3nc(cc4[n-]c(cc1n2)c(CC)c4CC)C(CC)=C3C.[Cd+2].c1ccncc1.c1ccncc1 [complex 4]
demetallation by sulfide [1]: no demetallation takes place | stability relative to cadmium porphyrins ([1]; neutral conditions / base binding controls): more stable than cadmium porphyrins | hydrolysis in aqueous acid [2]: leads to hydrolysis of the macrocyle
